Laboratory results: patent publication US20250351832A1, “PHYTOCHEMICALS AS BIOPESTICIDES AND BIOSTIMULANTS” (KAY BEE BIO ORGANICS PVT. LTD., priority 2024, published 2025)
Where two headings read alike, the source gives them in different places.

Columns and labels:
Spodoptera litura [1] = experiment: whole plant or invertebrate; conditions: 72 h
chili seedlings = experiment: Response of chili plants, greenhouse growth (Ex. 31); type: in vivo; conditions: for CCI 5th Day / Plant Height (cm) 5th Day: 120 h; for CCI 10th Day / Plant Height (cm) 10th Day / Root Lenght % Increase over control: 240 h; for CCI % Increase over pre on 10th Day / Plant Height % Increase over pre on 10th Day / Root Lenght (cm) 10th Day / Stem Girth % Increase over pre on 10th Day: chili seedlings, dose 1 ml/gm/lit
Thrips [2] = conditions: 48 h, 1 mL or g/L
Spodoptera litura [3] = conditions: Spodoptera litura 3rd instar on cabbage plants, dose 1 ml/gm/lit. spray; for % Mortality at 72 Hrs.: 72 hrs after application; for % Corrected Mortality at 72 Hrs.: corrected for water control
Alternaria alternata = experiment: In vitro poisoned food technique against fungus (Ex. 20); type: cell-based; conditions: […]
Thrips [4] = experiment: whole plant or invertebrate; conditions: in Gossypium hirsutum, 48 h
Aphid [5] = conditions: 48 h, 1 mL or g/L
Aphid [6] = conditions: for % Corrected Mortality at 48 Hrs. / % Mortality at 48 Hrs.: Dose 1 ml/gm/lit.
tomato seedlings = experiment: Response of tomato plants, greenhouse growth (Ex. 30); type: in vivo; conditions: for CCI 5th Day / Plant Height 5th Day / Stem Girth 5th Day: 120 h; for CCI 10th Day / Plant Height 10th Day / Root Length % Increase over control / Stem Girth 10th Day: 240 h; for Plant Height % Increase over pre on 10th Day / Stem Girth % Increase over pre on 10th Day / CCI % Increase over pre on 10th Day / Root Length (cm) 10th Day: tomato seedlings, dose 1 ml/gm/lit
Thrips [7] = conditions: for % Mortality at 48 Hrs. / % Corrected Mortality at 48 Hrs.: thrips on cotton plants, greenhouse, dose 1 ml/gm/lit. spray; for % Mortality at 48 Hrs.: 48 hrs after application; for % Corrected Mortality at 48 Hrs.: corrected for water control
Mealy Bug [8] = conditions: mealy bug on cotton plants, green house, dose 1 ml/gm/lit. spray; for % Mortality at 48 Hrs.: 48 hrs after application; for % Corrected Mortality at 48 Hrs.: corrected for water control
Helicoverpa armigera [9] = conditions: Helicoverpa armigera 3rd instar on chickpea plants, dose 1 ml/gm/lit. spray; for % Mortality at 72 Hrs.: 72 hrs after application; for % Corrected Mortality at 72 Hrs.: corrected for water control
Mite [10] = conditions: Dose 1 ml/gm/lit.; 48 hrs
[11] = cited from earlier work; for Phytotonic Effect: Table 13, effect on plants, descriptive
Mealy Bug [12] = conditions: Mealy Bug on cotton leaves, dose 1 ml/gm/lit., 48 Hrs.; for % Corrected Mortality at 48 Hrs.: corrected for water control
Aphid [13] = experiment: whole plant or invertebrate; conditions: 48 h
Mite [14] = conditions: mite on okra plants, green house, dose 1 ml/gm/lit. spray; for % Mortality at 48 Hrs.: 48 hrs after application; for % Corrected Mortality at 48 Hrs.: corrected for water control
Spodoptera litura [15] = conditions: 72 h, 1 mL or g/L
Helicoverpa armigera [16] = conditions: Helicoverpa armigera on okra fruits, dose 1 ml/gm/lit., 72 Hrs.; for % Corrected Mortality at 72 Hrs.: corrected for water control
[17] = tested on: Citrus Canker (Xanthomonas citri pv. Citri); experiment: Field trial, citrus canker (Ex. 117); conditions: dose 0.25%
[18] = read-out: % Corrected Mortality at 72 Hrs.
[19] = read-out: % Mortality at 72 Hrs.
[20] = read-out: % Corrected Mortality at 48 Hrs.
[21] = read-out: % Mortality at 48 Hrs.
[22] = Table 13, descriptive, no test described

## C=C1C2CCC(C2)C1(C)C (stereo not drawn) [Camphene, camphene]
Spodoptera litura [1]; [18]
  mortality at 1 mL or g/L: 65.8%
Spodoptera litura [1]; [19]
  mortality at 1 mL or g/L: 67.5%
Chili seedlings
  CCI Pre: 9.35
  Plant Height (cm) Pre: 3.94 cm
  CCI 5th Day: 10.40
  Plant Height (cm) 5th Day: 5.97 cm
  CCI 10th Day: 12.02
  Plant Height (cm) 10th Day: 6.21 cm
  Root Lenght % Increase over control: 27.80%
  CCI % Increase over pre on 10th Day: 28.56%
  Plant Height % Increase over pre on 10th Day: 57.61%
  Root Lenght (cm) 10th Day: 3.50 cm
  Stem Girth % Increase over pre on 10th Day: 43.80%
Thrips [2]
  Total No. of dead insect at 48 Hrs.: 5.25
Spodoptera litura [3]
  % Mortality at 72 Hrs.: 65.00%
  % Corrected Mortality at 72 Hrs.: 63.16%
Alternaria alternata
  inhibition of growth at 1 mL or g/L: 18.8%
Thrips [4]; [20]
  mortality at 1 mL or g/L: 45.7%
Thrips [4]; [21]
  mortality at 1 mL or g/L: 52.5%
Aphid [5]
  Total No. of dead insect at 48 Hrs.: 50.00
Aphid [6]
  Total No. of dead insect at 48 Hrs.: 5.25
  % Corrected Mortality at 48 Hrs.: 45.71%
  % Mortality at 48 Hrs.: 52.50%
Tomato seedlings
  CCI Pre: 11.85
  Plant Height Pre: 5.75 cm
  Stem Girth Pre: 1.29 mm
  CCI 5th Day: 13.99
  Plant Height 5th Day: 6.82 cm
  Stem Girth 5th Day: 1.49 mm
  CCI 10th Day: 14.95
  Plant Height 10th Day: 7.34 cm
  Root Length % Increase over control: 14.19%
  Stem Girth 10th Day: 2.07 mm
  Plant Height % Increase over pre on 10th Day: 27.65%
  Stem Girth % Increase over pre on 10th Day: 60.47%
  CCI % Increase over pre on 10th Day: 26.16%
  Root Length (cm) 10th Day: 3.80 cm
Thrips [7]
  Total No. of dead insect at 48 Hrs.: 50.00
  % Mortality at 48 Hrs.: 50.00%
  % Corrected Mortality at 48 Hrs.: 44.44%
Mealy Bug [8]
  % Mortality at 48 Hrs.: 52.50%
  % Corrected Mortality at 48 Hrs.: 47.22%
Helicoverpa armigera [9]
  % Mortality at 72 Hrs.: 60.00%
  % Corrected Mortality at 72 Hrs.: 60.00%
Mite [10]
  % Corrected Mortality at 48 Hrs.: 35.14%
  % Mortality at 48 Hrs.: 40.00%
[11]
  Phytotonic Effect: Trigger the nutrition
Mealy Bug [12]
  % Mortality at 48 Hrs.: 45.00%
  % Corrected Mortality at 48 Hrs.: 42.11%
Aphid [13]; [20]
  mortality at 1 mL or g/L: 41.2%
Aphid [13]; [21]
  mortality at 1 mL or g/L: 50%
Mite [14]
  % Mortality at 48 Hrs.: 40.00%
  % Corrected Mortality at 48 Hrs.: 36.84%
Spodoptera litura [15]
  Total No. of dead insect at 72 Hrs.: 6.75
Helicoverpa armigera [16]
  % Mortality at 72 Hrs.: 62.50%
  % Corrected Mortality at 72 Hrs.: 62.50%

## CCCCC[C@H](O)CC(=O)CCc1ccc(O)c(OC)c1 [Gingerol]
Spodoptera litura [1]; [18]
  mortality at 1 mL or g/L: 36.8%
Spodoptera litura [1]; [19]
  mortality at 1 mL or g/L: 40%
Chili seedlings
  CCI Pre: 9.40
  Plant Height (cm) Pre: 4.05 cm
  CCI 5th Day: 13.02
  Plant Height (cm) 5th Day: 5.95 cm
  CCI 10th Day: 16
  Plant Height (cm) 10th Day: 6.65 cm
  Root Lenght % Increase over control: 37.61%
  CCI % Increase over pre on 10th Day: 70.21%
  Plant Height % Increase over pre on 10th Day: 64.20%
  Root Lenght (cm) 10th Day: 3.77 cm
  Stem Girth % Increase over pre on 10th Day: 45.00%
Thrips [2]
  Total No. of dead insect at 48 Hrs.: 3.75
Spodoptera litura [3]
  % Mortality at 72 Hrs.: 37.50%
  % Corrected Mortality at 72 Hrs.: 34.21%
Alternaria alternata
  inhibition of growth at 1 mL or g/L: 51.7%
Thrips [4]; [20]
  mortality at 1 mL or g/L: 28.6%
Thrips [4]; [21]
  mortality at 1 mL or g/L: 37.5%
Aphid [5]
  Total No. of dead insect at 48 Hrs.: 65.00
Aphid [6]
  Total No. of dead insect at 48 Hrs.: 6.25
  % Corrected Mortality at 48 Hrs.: 57.14%
  % Mortality at 48 Hrs.: 62.50%
Tomato seedlings
  CCI Pre: 12.65
  Plant Height Pre: 5.62 cm
  Stem Girth Pre: 1.35 mm
  CCI 5th Day: 14.63
  Plant Height 5th Day: 6.45 cm
  Stem Girth 5th Day: 1.92 mm
  CCI 10th Day: 16.87
  Plant Height 10th Day: 7.59 cm
  Root Length % Increase over control: 31.77%
  Stem Girth 10th Day: 2.31 mm
  Plant Height % Increase over pre on 10th Day: 35.05%
  Stem Girth % Increase over pre on 10th Day: 70.52%
  CCI % Increase over pre on 10th Day: 33.36%
  Root Length (cm) 10th Day: 4.38 cm
Thrips [7]
  Total No. of dead insect at 48 Hrs.: 30.00
  % Mortality at 48 Hrs.: 30.00%
  % Corrected Mortality at 48 Hrs.: 22.22%
Mealy Bug [8]
  % Mortality at 48 Hrs.: 37.50%
  % Corrected Mortality at 48 Hrs.: 30.56%
Helicoverpa armigera [9]
  % Mortality at 72 Hrs.: 50.00%
  % Corrected Mortality at 72 Hrs.: 50.00%
Mite [10]
  % Corrected Mortality at 48 Hrs.: 29.73%
  % Mortality at 48 Hrs.: 35.00%
[11]; [22]
  Antifungal Activity - Mode of action: More effective in restricting
  Antioxidant Activity - Mode of action: High antioxidant activity
  Bactericidal Activity - Mode of action: Antibacterial activity
  Insecticidal Activities - Mode of action: Exhibit repellent activity
  Nematicidal Activity - Mode of action: Suppressed root knot egg
  Virucidal Activity - Mode of action: Inhibit viral nucleic
[11]
  Phytotonic Effect: Enhanced plant
Mealy Bug [12]
  % Mortality at 48 Hrs.: 27.50%
  % Corrected Mortality at 48 Hrs.: 23.68%
Aphid [13]; [20]
  mortality at 1 mL or g/L: 58.8%
Aphid [13]; [21]
  mortality at 1 mL or g/L: 65%
Mite [14]
  % Mortality at 48 Hrs.: 30.00%
  % Corrected Mortality at 48 Hrs.: 26.32%
Spodoptera litura [15]
  Total No. of dead insect at 72 Hrs.: 4.00
Helicoverpa armigera [16]
  % Mortality at 72 Hrs.: 52.50%
  % Corrected Mortality at 72 Hrs.: 52.50%

## Copper
[17]
  % Disease reduction over Control: 71.15%
[17]; 1st spray, 5rd Day
  Citrus Canker severity, 1st spray 5rd Day: 39.56
[17]; 1st spray, 10th day
  Citrus Canker severity, 1st spray 10th day: 34.15
[17]; 2nd spray, 5rd day
  Citrus Canker severity, 2nd spray 5rd day: 29.65
[17]; 2nd spray, 10th Day
  Citrus Canker severity, 2nd spray 10th Day: 23.65
[17]; citrus
  % Increase in yield over control: 13.04%
  Yield (t/ha): 9.20 t/ha
[17]; pre spray (baseline)
  Citrus Canker severity, Pre spray: 40.52
